The record followed here is PMC7037732, “Synthesis of Combretastatin A-4 and 3′-Aminocombretastatin A-4 derivatives with Aminoacid Containing Pendants and Study of their Interaction with Tubulin and as Downregulators of the VEGF, hTERT and c-Myc Gene Expression” (Molecules, 2020).

Structures are written as SMILES.

One experiment concerns hTERT gene. The experiment in a line: hTERT gene expression by RT-qPCR in HT-29 cells. In kind it is cell-based, human. As to the method:
The effect on the expression of VEGF, hTERT and c-Myc genes has been studied for CA-4 and its derivatives that show selectivity indexes higher than 0.9 on the HT-29 cell line. The studied derivatives, together with the concentrations to which they have been tested, are CA-4 (15 μM); 4.1 (Gly, 5 μM); 4.5 (L-Pro, 25 μM); 4.9 (L-Met, 25 μM); 6.2 (D-Leu, 25 μM); 6.3 (D-Phe, 25 μM); 6.4 (D-Pro, 25 μM) and 6.5 (D-Ser, 10 μM). The expression of the genes was determined by RT-qPCR methodology, as described in the Materials and Methods section.
As regards AmCA-4 derivatives, the effect on the expression of the VEGF, hTERT and c-Myc genes has been studied on those that show IC50 in the low nanomolar range on the HT-29 cell line and/or on compounds whose selectivity indexes with respect to this cell line are higher than 1. The studied compounds, together with the concentrations to which they have been tested, are: CA-4 (15 μM), AmCA-4 (15 nM), 7.1 (7 nM), 7.2 (1.5 nM), 7.3 (4 nM), 7.4 (15 nM), 7.5 (2 nM), 7.7 (7 nM), 7.8 (15 nM), 7.9 (30 nM), 8.1 (7 nM), 8.2 (3 nM), 8.3 (10 nM), 8.4 (1.5 nM), 8.5 (4 nM), 8.7 (7 nM), 8.8 (3 nM) and 8.9 (4 nM).
HT-29 cells at 70–80% confluence were collected, and 1.5 × 10^5 cells were placed in a six-well plate in 1.5 mL of the medium. After 24 h, cells were incubated with the corresponding compounds for 48 h. Cells were collected, and the total cellular RNA from the HT-29 cells was isolated using an Ambion RNA Extraction Kit, according to the manufacturer’s instructions. The cDNA was synthesized by MMLV-RT with […] of extracted RNA and oligo(dT)15, according to the manufacturer’s instructions. Genes were amplified by a thermal cycler and StepOnePlus™ TaqMan® probes. TaqMan® Gene Expression Master Mix Fast, containing the appropriate buffer for the amplification conditions, dNTPs, thermostable DNA polymerase enzyme and a passive reference probe, was used. To amplify each of the genes, the predesigned primers sold by Life Technologies TaqMan® Gene Expression Assays Hs99999903-m1 (β-actin), Hs00900055-m1 (VEGF), Hs00972646-m1 (hTERT) and Hs00153408-m1 (c-Myc) were used.
For orientation: Real-time PCR tracks product formation cycle by cycle.

In experiment [1] the test system is A-549 (human pulmonary adenocarcinoma). Kind of experiment: Inhibition of cell proliferation (MTT), A-549. Conditions: Homo sapiens, A549, 48 h, 48 h of treatment (footnote), average ±SD of three experiments. In kind it is cell-based. In short, it runs like this: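 Antiproliferative activity against A-549 human pulmonary adenocarcinoma cells was measured by MTT assay. Cells were seeded at 25,000/mL in 96-well plates, cultured 24 h, then exposed to compounds at various concentrations. MTT (20 µL, 5 mg·mL^−1) was added for 2 h at 37 °C, formazan dissolved in 200 µL DMSO, and absorbance read at 540 nm. IC50 values came graphically from three independent experiments.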

The subject of experiment [2] is HT-29 (human colon adenocarcinoma). The experiment in a line: Inhibition of cell proliferation (MTT), HT-29. In kind it is cell-based. Conditions: 48 h of treatment (footnote), average ±SD of three experiments.
Where [3] appears, read: Homo sapiens, HT-29, 48 h, 7 nM, control 100.
[4] abbreviates: Homo sapiens, HT-29, 48 h, Table 2.
Where [5] appears, read: Homo sapiens, HT-29, 48 h, Table 1.
Setting [6] is: Homo sapiens, HT-29, 48 h, 25 μM, control 100.
The mark [7] stands for this setting: Homo sapiens, HT-29, 48 h, 4 nM, control 100.
The mark [8] stands for this setting: Homo sapiens; HT-29, 48 h, 25 μM; control 100.

As for `COc1ccc(/C=C\c2cc(OC)c(OC)c(OC)c2)cc1NC(=O)[C@@H](N)C(C)O` (stereo partly shown) [Compound 8.7], the mrna remaining at 0.007 µM in the experiment with hTERT gene (setting [3]) stood at 81%. The IC50 – broadly, the concentration needed to halve the response being measured – is 410 ± 40 nM in experiment [1] (Table 2) and 8 ± 2 nM in experiment [2] (setting [4]).

In the experiment with hTERT gene (Homo sapiens, HT-29, 48 h, 5 μM, control 100), `COc1ccc(/C=C\c2cc(OC)c(OC)c(OC)c2)cc1OCC(=O)NCC(=O)O` [Compound 4.1] registered a mrna remaining at 5 µM of 56%. Besides, the IC50 turned out to be 24000 ± 4000 nM in experiment [1] (Table 1) and 5000 ± 1000 nM in experiment [2] (setting [5]).

The molecule `COc1ccc(/C=C\c2cc(OC)c(OC)c(OC)c2)cc1N` [AmCA-4, 3′-aminocombretastatin A-4] gave a mrna remaining at 0.015 µM in the experiment on hTERT gene (Homo sapiens; HT-29, 48 h, 15 nM; control 100) of 50%. Besides, the IC50 came to 117 ± 7 nM in experiment [1] (Table 2) and 22 ± 1 nM in experiment [2] (setting [4]).

`COc1ccc(/C=C\c2cc(OC)c(OC)c(OC)c2)cc1NC(=O)[C@H](CCSC)NC(=O)OCC1c2ccccc2-c2ccccc21` [Compound 7.9] yielded a mrna remaining at 0.03 µM in the experiment on hTERT gene (Homo sapiens, HT-29, 48 h, 30 nM, control 100) of 77%. The results for the IC50 in experiment [1] (Table 2) and in experiment [2] (setting [4]) were 407 ± 23 nM and 33 ± 20 nM, respectively.

The molecule `COc1ccc(/C=C\c2cc(OC)c(OC)c(OC)c2)cc1OCC(=O)N[C@H](CC(C)C)C(=O)O` [Compound 6.2] showed a mrna remaining at 25 µM in the experiment with hTERT gene (setting [6]) of 87%. For the same molecule, the IC50 in experiment [1] (Table 1) was 68000 ± 1000 nM; in experiment [2] (setting [5]) it was 47000 ± 9000 nM.

`COc1ccc(/C=C\c2cc(OC)c(OC)c(OC)c2)cc1NC(=O)[C@@H](N)CCSC` [Compound 8.9] came in with a mrna remaining at 0.004 µM in the experiment on hTERT gene (setting [7]) of 71%. The IC50 in experiment [1] (Table 2) is 90 ± 30 nM; in experiment [2] (setting [4]) it was below 5 nM; in experiment [2] (Table 2), 4.9 ± 0.1 nM.

In the experiment with hTERT gene (Homo sapiens; HT-29, 48 h, 15 μM; control (DMSO) 100; normalized to β-actin), `COc1ccc(/C=C\c2cc(OC)c(OC)c(OC)c2)cc1O` [CA-4, combretastatin A-4] yielded a mrna remaining at 15 µM of 85%. Besides, the IC50 in experiment [1] (Table 1) came to 428 ± 4 nM; in experiment [2] (Homo sapiens, HT-29, Table 1) it was 4200 ± 500 nM.

`COc1ccc(/C=C\c2cc(OC)c(OC)c(OC)c2)cc1NC(=O)[C@H](C)N` [Compound 8.2] had a mrna remaining at 0.003 µM in the experiment with hTERT gene (Homo sapiens, HT-29, 48 h, 3 nM, control 100) of 74%. In addition, the IC50 is 611 ± 16 nM in experiment [1] (Table 2), below 5 nM in experiment [2] (setting [4]) and 3 ± 0.3 nM in experiment [2] (Table 2).

In the experiment with hTERT gene (Homo sapiens, HT-29, 48 h, 10 nM, control 100), `COc1ccc(/C=C\c2cc(OC)c(OC)c(OC)c2)cc1NC(=O)[C@@H](N)C(C)C` [Compound 8.3] came in with a mrna remaining at 0.01 µM below 70%. The results for the IC50 in experiment [1] (Table 2) and in experiment [2] (setting [4]) were 490 ± 100 nM and 13.3 ± 0.5 nM, respectively.

For `COc1ccc(/C=C\c2cc(OC)c(OC)c(OC)c2)cc1NC(=O)CN` [Compound 8.1], the mrna remaining at 0.007 µM with hTERT gene (setting [3]) is above 100%. Also, the IC50 in experiment [1] (Table 2) stood at 400 ± 70 nM; in experiment [2] (setting [4]), 10 ± 2 nM.

In turn, `COc1ccc(/C=C\c2cc(OC)c(OC)c(OC)c2)cc1OCC(=O)N[C@H](C(=O)O)C(C)C` [Compound 4.2] displayed a mrna remaining at 25 µM with hTERT gene (setting [8]) of 82%. The IC50 in experiment [1] (Table 1) worked out at 17000 ± 2000 nM; in experiment [2] (Homo sapiens, HT-29, Table 1), 12000 ± 5000 nM.

`COc1ccc(/C=C\c2cc(OC)c(OC)c(OC)c2)cc1OCC(=O)N[C@H](CO)C(=O)O` [Compound 6.5] gave a mrna remaining at 10 µM with hTERT gene (Homo sapiens, HT-29, 48 h, 10 μM, control 100) of 77%. The figures for the IC50 in experiment [1] (Table 1) and in experiment [2] (setting [5]) were above 150000 nM and 13000 ± 1000 nM, respectively.

As to `COc1ccc(/C=C\c2cc(OC)c(OC)c(OC)c2)cc1OCC(=O)N[C@@H](CCSC)C(=O)O` [Compound 4.9], in the experiment with hTERT gene (HT-29, 48 h; discussion; concentration per compound), the “downregulation of hTERT gene expression” value is reported as “more than 55%”. The mrna remaining at 25 µM in the experiment with hTERT gene (setting [6]) came out at 38%. The results for the half-inhibitory concentration (IC50) in experiment [1] (Table 1) and in experiment [2] (setting [5]) were above 300000 nM and 32000 ± 6000 nM, respectively.

In the experiment with hTERT gene (Homo sapiens, HT-29, 48 h, 2 nM, control 100), `COc1ccc(/C=C\c2cc(OC)c(OC)c(OC)c2)cc1NC(=O)[C@H](Cc1ccccc1)NC(=O)OCC1c2ccccc2-c2ccccc21` [Compound 7.5] had a mrna remaining at 0.002 µM below 70%. The IC50 in experiment [1] (Table 2) was determined as 270 ± 50 nM; in experiment [2] (setting [4]) it was 8 ± 3 nM.

Turning to `COc1ccc(/C=C\c2cc(OC)c(OC)c(OC)c2)cc1NC(=O)[C@@H](N)Cc1ccccc1` [Compound 8.5], the mrna remaining at 0.004 µM in the experiment with hTERT gene (setting [7]) came to 98%. Besides, the figures for the IC50 in experiment [1] (Table 2), in experiment [2] (setting [4]) and in experiment [2] (Table 2) were 141 ± 3 nM, below 5 nM and 4.4 ± 2.5 nM, respectively.

On to `COc1ccc(/C=C\c2cc(OC)c(OC)c(OC)c2)cc1OCC(=O)N1CCC[C@@H]1C(=O)O` [Compound 6.4], for which the mrna remaining at 25 µM in the experiment with hTERT gene (setting [6]) turned out to be 51%. Moreover, the IC50 in experiment [1] (Table 1) came to 95000 ± 14000 nM; in experiment [2] (setting [5]) it was 50000 ± 11000 nM.

`COc1ccc(/C=C\c2cc(OC)c(OC)c(OC)c2)cc1NC(=O)CNC(=O)OCC1c2ccccc2-c2ccccc21` [Compound 7.1] had a mrna remaining at 0.007 µM in the experiment with hTERT gene (setting [3]) below 70%. The IC50 turned out to be 186 ± 11 nM in experiment [1] (Table 2) and 7 ± 4 nM in experiment [2] (setting [4]).

In the experiment with hTERT gene (setting [8]), `COc1ccc(/C=C\c2cc(OC)c(OC)c(OC)c2)cc1OCC(=O)N[C@H](Cc1ccccc1)C(=O)O` [Compound 6.3] had a mrna remaining at 25 µM of 68%. For the same molecule, the IC50 came to 60000 ± 4000 nM in experiment [1] (Table 1) and 27000 ± 5000 nM in experiment [2] (Homo sapiens, HT-29, Table 1).
